27 molecules from patent US8461152B2, “Arylcyclohexylethers of dihydrotetraazabenzoazulenes” (Hoffmann-La Roche Inc., priority 2008, dated 2013) can be followed below.

Where a name gives a salt, the structure may show the parent alone.

The target of the test is T1, human V1a receptor (Homo sapiens, UniProt P37288).
T1 construct: expressed in transfected cells; host or cells: HEK293 cells, transiently transfected; membrane preparation
T1 sequence (P37288 whole entry): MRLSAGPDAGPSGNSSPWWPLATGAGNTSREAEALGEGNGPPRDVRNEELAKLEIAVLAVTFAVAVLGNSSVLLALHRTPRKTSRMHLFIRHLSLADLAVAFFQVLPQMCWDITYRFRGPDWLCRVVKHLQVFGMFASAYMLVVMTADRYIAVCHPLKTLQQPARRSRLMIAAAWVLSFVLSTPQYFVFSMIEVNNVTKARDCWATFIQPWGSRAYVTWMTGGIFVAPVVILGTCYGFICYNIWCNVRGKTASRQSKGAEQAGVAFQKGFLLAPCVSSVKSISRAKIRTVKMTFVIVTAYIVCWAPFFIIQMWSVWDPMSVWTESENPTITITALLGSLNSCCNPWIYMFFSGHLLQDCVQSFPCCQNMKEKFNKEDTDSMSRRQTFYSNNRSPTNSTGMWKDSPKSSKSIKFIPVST
Description: human V1a receptor binding studies (SPA, 3H-Vasopressin, membranes of transfected HEK293 cells). The settings on record: displacement of 3H-Vasopressin, HEK293 cell membranes, 1 h at room temperature; Ki by Cheng-Prussoff equation; read-out: pKi (hV1a) (converted). As for the experimental part: The human V1a receptor was cloned by RT-PCR from total human liver RNA. The coding sequence was subcloned in an expression vector after sequencing to confirm the identity of the amplified sequence. […] Cell membranes were prepared from HEK293 cells transiently transfected with the expression vector and grown in 20 liter fermenters with the following protocol.
50 g of cells are resuspended in 30 ml freshly prepared ice cold Lysis buffer (50 mM HEPES, 1 mM EDTA, 10 mM magnesium dichloride adjusted to pH=7.4+complete cocktail of protease inhibitor (Roche Diagnostics)). Homogenized with Polytron for 1 min and sonicated on ice for 2×2 minutes at 80% intensity (Vibracell sonicator). The preparation is centrifuged 20 min at 500 g at 4° C., the pellet is discarded and the supernatant centrifuged 1 hour at 43'000 g at 4° C. (19'000 rpm). The pellet is resuspended in 12.5 ml Lysis buffer+12.5 ml Sucrose 20% and homogenized using a Polytron for 1-2 min. The protein concentration is determined by the Bradford method and aliquots are stored at −80° C. until use. For binding studies 60 mg Yttrium silicate SPA beads (Amersham) are mixed with an aliquot of membrane in binding buffer (50 mM Tris, 120 mM sodium chloride, 5 mM potassium chloride, 2 mM Calcium dichloride, 10 mM magnesium dichloride) for 15 minutes with mixing. 50 μl of bead/membrane mixture is then added to each well of a 96 well plate, followed by 50 μl of 4 nM 3H-Vasopressin (American Radiolabeled Chemicals). For total binding measurement 100 μl of binding buffer are added to the respective wells, for non-specific binding 100 μl of 8.4 mM cold vasopressin and for compound testing 100 μl of a serial dilution of each compound in 2% dimethyl sulfoxide. The plate is incubated 1 h at room temperature, centrifuged […] at 1000 g and counted on a Packard Top-Count. Non-specific binding counts are subtracted from each well and data is normalized to the maximum specific binding set at 100%. To calculate an IC 50 the curve is fitted using a non-linear regression model (XLfit) and the Ki is calculated using the Cheng-Prussoff equation.
On the technique in general: Loss of bound radioactivity is the signal in a displacement assay; it reports binding, not function.
On to `CC(C)(C)OC(=O)N1Cc2cc(Cl)ccc2-n2c(nnc2[C@H]2CC[C@H](Oc3ccccc3)CC2)C1` [Example 1, trans-8-Chloro-1-(4-phenoxy-cyclohexyl)-4H,6H-2,3,5,10b-tetraaza-benzoazulene-5-carboxylic acid tert-butyl ester], for which the Ki is 3.24 nM.
As to `Clc1ccc2c(c1)CNCc1nnc([C@H]3CC[C@H](Oc4ccccc4)CC3)n1-2` [Example 2, trans-8-Chloro-1-(4-phenoxy-cyclohexyl)-5,6-dihydro-4H-2,3,5,10b-tetraaza-benzoazulene hydrochloride], the Ki is 4.37 nM.
`CN1Cc2cc(Cl)ccc2-n2c(nnc2[C@H]2CC[C@H](Oc3ccccc3)CC2)C1` [Example 3, trans-8-Chloro-5-methyl-1-(4-phenoxy-cyclohexyl)-5,6-dihydro-4H-2,3,5,10b-tetraaza-benzo[e]azulene]: the Ki is 1.58 nM.
The result for `CC(=O)N1Cc2cc(Cl)ccc2-n2c(nnc2[C@H]2CC[C@H](Oc3ccccc3)CC2)C1` [Example 4, trans-1-[8-Chloro-1-(4-phenoxy-cyclohexyl)-4H,6H-2,3,5,10b-tetraaza-benzoazulen-5-yl]-ethanone] reads 1.41 nM; that for `CS(=O)(=O)N1Cc2cc(Cl)ccc2-n2c(nnc2[C@H]2CC[C@H](Oc3ccccc3)CC2)C1` [Example 5, trans-8-Chloro-5-methanesulfonyl-1-(4-phenoxy-cyclohexyl)-5,6-dihydro-4H-2,3,5,10b-tetraaza-benzoazulene], 1.7 nM.
Turning to `OCCN1Cc2cc(Cl)ccc2-n2c(nnc2[C@H]2CC[C@H](Oc3ccccc3)CC2)C1` [Example 6, trans-2-[8-Chloro-1-(4-phenoxy-cyclohexyl)-4H,6H-2,3,5,10b-tetraaza-benzoazulen-5-yl]-ethanol], the Ki was 1.58 nM.
With `CC(C)N1Cc2cc(Cl)ccc2-n2c(nnc2[C@H]2CC[C@H](Oc3ccccc3)CC2)C1` [Example 7, trans-8-Chloro-5-isopropyl-1-(4-phenoxy-cyclohexyl)-5,6-dihydro-4H-2,3,5,10b-tetraaza-benzoazulene] the figure was 1.7 nM; with `CN(C)S(=O)(=O)N1Cc2cc(Cl)ccc2-n2c(nnc2[C@H]2CC[C@H](Oc3ccccc3)CC2)C1` [Example 8, trans-8-Chloro-1-(4-phenoxy-cyclohexyl)-4H,6H-2,3,5,10b-tetraaza-benzoazulene-5-sulfonic acid dimethylamide], 2 nM.
The result for `Clc1ccc2c(c1)CN(Cc1ccccn1)Cc1nnc([C@H]3CC[C@H](Oc4ccccc4)CC3)n1-2` [Example 9, trans-8-Chloro-1-(4-phenoxy-cyclohexyl)-5-pyridin-2-ylmethyl-5,6-dihydro-4H-2,3,5,10b-tetraaza-benzoazulene] reads 1.82 nM.
Consider `CN(C)CC(=O)N1Cc2cc(Cl)ccc2-n2c(nnc2[C@H]2CC[C@H](Oc3ccccc3)CC2)C1` [Example 10, trans-1-[8-Chloro-1-(4-phenoxy-cyclohexyl)-4H,6H-2,3,5,10b-tetraaza-benzoazulen-5-yl]-2-dimethylamino-ethanone], for which the Ki was 2.09 nM.
The result for `CC(C)(C)OC(=O)N1Cc2cc(F)ccc2-n2c(nnc2[C@H]2CC[C@H](Oc3ccccc3)CC2)C1` [Example 11, trans-8-Fluoro-1-(4-phenoxy-cyclohexyl)-4H,6H-2,3,5,10b-tetraaza-benzo[e]azulene-5-carboxylic acid tert-butyl ester] reads 5.5 nM; that for `CN1Cc2cc(F)ccc2-n2c(nnc2[C@H]2CC[C@H](Oc3ccccc3)CC2)C1` [Example 13, trans-8-Fluoro-5-methyl-1-(4-phenoxy-cyclohexyl)-5,6-dihydro-4H-2,3,5,10b-tetraaza-benzoazulene], 5.37 nM; that for `CC(C)(C)OC(=O)N1Cc2cc(Cl)ccc2-n2c(nnc2[C@H]2CC[C@@H](Oc3ccccc3)CC2)C1` [Example 14, cis-8-Chloro-1-(4-phenoxy-cyclohexyl)-4H,6H-2,3,5,10b-tetraaza-benzoazulene-5-carboxylic acid tert-butyl ester], 9.33 nM.
With `CN1Cc2cc(Cl)ccc2-n2c(nnc2[C@H]2CC[C@@H](Oc3ccccc3)CC2)C1` [Example 16, cis-8-Chloro-5-methyl-1-(4-phenoxy-cyclohexyl)-5,6-dihydro-4H-2,3,5,10b-tetraaza-benzoazulene] the figure was 2.88 nM.
With `CC(C)(C)OC(=O)N1Cc2cc(Cl)ccc2-n2c(nnc2[C@H]2CC[C@H](Oc3ccc(F)cc3)CC2)C1` [Example 17, trans-8-Chloro-1-[4-(4-fluoro-phenoxy)-cyclohexyl]-4H,6H-2,3,5,10b-tetraaza-benzoazulene-5-carboxylic acid tert-butyl ester] the figure was 3.72 nM; with `Fc1ccc(O[C@H]2CC[C@H](c3nnc4n3-c3ccc(Cl)cc3CNC4)CC2)cc1` [Example 18, trans-8-Chloro-1-[4-(4-fluoro-phenoxy)-cyclohexyl]-5,6-dihydro-4H-2,3,5,10b-tetraaza-benzo[e]azulene hydrochloride], 9.55 nM.
For `CN1Cc2cc(Cl)ccc2-n2c(nnc2[C@H]2CC[C@H](Oc3ccc(F)cc3)CC2)C1` [Example 19, trans-8-Chloro-1-[4-(4-fluoro-phenoxy)-cyclohexyl]-5-methyl-5,6-dihydro-4H-2,3,5,10b-tetraaza-benzoazulene], the Ki is 3.09 nM.
Regarding `CC(C)(C)OC(=O)N1Cc2cc(Cl)ccc2-n2c(nnc2[C@H]2CC[C@H](Oc3ccc(C#N)cc3)CC2)C1` [Example 20, trans-8-Chloro-1-[4-(4-cyano-phenoxy)-cyclohexyl]-4H,6H-2,3,5,10b-tetraaza-benzo[e]azulene-5-carboxylic acid tert-butyl ester], the Ki was 7.76 nM.
With `CN1Cc2cc(Cl)ccc2-n2c(nnc2[C@H]2CC[C@H](Oc3ccc(C#N)cc3)CC2)C1` [Example 22, trans-4-[4-(8-Chloro-5-methyl-5,6-dihydro-4H-2,3,5,10b-tetraaza-benzo[e]azulen-1-yl)-cyclohexyloxy]-benzonitrile] the figure was 8.91 nM.
In the case of `CC(C)(C)OC(=O)N1Cc2cc(Cl)ccc2-n2c(nnc2[C@H]2CC[C@H](Oc3ccc(C(F)(F)F)cc3)CC2)C1` [Example 23, trans-8-Chloro-1-[4-(4-trifluoromethyl-phenoxy)-cyclohexyl]-4H,6H-2,3,5,10b-tetraaza-benzo[e]azulene-5-carboxylic acid tert-butyl ester], the Ki is 9.12 nM.
The result for `CC(C)(C)OC(=O)N1Cc2cc(Cl)ccc2-n2c(nnc2[C@H]2CC[C@H](Oc3cccc(Cl)c3)CC2)C1` [Example 26, trans-8-Chloro-1-[4-(3-chloro-phenoxy)-cyclohexyl]-4H,6H-2,3,5,10b-tetraaza-benzoazulene-5-carboxylic acid tert-butyl ester] reads 4.17 nM.
Take `CN1Cc2cc(Cl)ccc2-n2c(nnc2[C@H]2CC[C@H](Oc3cccc(Cl)c3)CC2)C1` [Example 28, trans-8-Chloro-1-[4-(3-chloro-phenoxy)-cyclohexyl]-5-methyl-5,6-dihydro-4H-2,3,5,10b-tetraaza-benzoazulene]: the Ki is 3.09 nM.
With `COc1cccc(O[C@H]2CC[C@H](c3nnc4n3-c3ccc(Cl)cc3CN(C(=O)OC(C)(C)C)C4)CC2)c1` [Example 29, trans-8-Chloro-1-[4-(3-methoxy-phenoxy)-cyclohexyl]-4H,6H-2,3,5,10b-tetraaza-benzoazulene-5-carboxylic acid tert-butyl ester] the figure was 4.68 nM; with `COc1cccc(O[C@H]2CC[C@H](c3nnc4n3-c3ccc(Cl)cc3CNC4)CC2)c1` [Example 30, trans-8-Chloro-1-[4-(3-methoxy-phenoxy)-cyclohexyl]-5,6-dihydro-4H-2,3,5,10b-tetraaza-benzo[e]azulene hydrochloride], 3.31 nM.
For `COc1cccc(O[C@H]2CC[C@H](c3nnc4n3-c3ccc(Cl)cc3CN(C)C4)CC2)c1` [Example 31, trans-8-Chloro-1-[4-(3-methoxy-phenoxy)-cyclohexyl]-5-methyl-5,6-dihydro-4H-2,3,5,10b-tetraaza-benzoazulene], the Ki is 2.09 nM.
Turning to `CN1Cc2cc(Cl)ccc2-n2c(nnc2[C@H]2CC[C@H](Oc3cccc(C#N)c3)CC2)C1` [Example 34, trans-3-[4-(8-Chloro-5-methyl-5,6-dihydro-4H-2,3,5,10b-tetraaza-benzoazulen-1-yl)-cyclohexyloxy]-benzo nitrile], the Ki was 2.69 nM.
With `Cc1cccc(O[C@H]2CC[C@H](c3nnc4n3-c3ccc(Cl)cc3CN(C(=O)OC(C)(C)C)C4)CC2)c1` [Example 35, trans-8-Chloro-1-(4-m-tolyloxy-cyclohexyl)-4H,6H-2,3,5,10b-tetraaza-benzo[e]azulene-5-carboxylic acid tert-butyl ester], the Ki is 4.9 nM.
